Laboratory results reported in patent US9926282B2, “Phthalazinones and isoquinolinones as rock inhibitors” (BRISTOL-MYERS SQUIBB COMPANY, priority 2013, dated 2018).

Tests used:
ROCK1 = ROCK1 (Homo sapiens (Human), UniProt Q13464); assay: ROCK assay (LABCHIP peptide phosphorylation), ROCK1; type: biochemical; conditions: 5 μM ATP, 1.5 μM peptide substrate; read-out: ROCK1 IC50
ROCK2 = ROCK2 (Homo sapiens (Human), UniProt O75116); assay: ROCK assay (LABCHIP peptide phosphorylation), ROCK2; type: biochemical; conditions: 5 μM ATP, 1.5 μM peptide substrate
ROCK2, sequence (O75116 whole entry, species assumed): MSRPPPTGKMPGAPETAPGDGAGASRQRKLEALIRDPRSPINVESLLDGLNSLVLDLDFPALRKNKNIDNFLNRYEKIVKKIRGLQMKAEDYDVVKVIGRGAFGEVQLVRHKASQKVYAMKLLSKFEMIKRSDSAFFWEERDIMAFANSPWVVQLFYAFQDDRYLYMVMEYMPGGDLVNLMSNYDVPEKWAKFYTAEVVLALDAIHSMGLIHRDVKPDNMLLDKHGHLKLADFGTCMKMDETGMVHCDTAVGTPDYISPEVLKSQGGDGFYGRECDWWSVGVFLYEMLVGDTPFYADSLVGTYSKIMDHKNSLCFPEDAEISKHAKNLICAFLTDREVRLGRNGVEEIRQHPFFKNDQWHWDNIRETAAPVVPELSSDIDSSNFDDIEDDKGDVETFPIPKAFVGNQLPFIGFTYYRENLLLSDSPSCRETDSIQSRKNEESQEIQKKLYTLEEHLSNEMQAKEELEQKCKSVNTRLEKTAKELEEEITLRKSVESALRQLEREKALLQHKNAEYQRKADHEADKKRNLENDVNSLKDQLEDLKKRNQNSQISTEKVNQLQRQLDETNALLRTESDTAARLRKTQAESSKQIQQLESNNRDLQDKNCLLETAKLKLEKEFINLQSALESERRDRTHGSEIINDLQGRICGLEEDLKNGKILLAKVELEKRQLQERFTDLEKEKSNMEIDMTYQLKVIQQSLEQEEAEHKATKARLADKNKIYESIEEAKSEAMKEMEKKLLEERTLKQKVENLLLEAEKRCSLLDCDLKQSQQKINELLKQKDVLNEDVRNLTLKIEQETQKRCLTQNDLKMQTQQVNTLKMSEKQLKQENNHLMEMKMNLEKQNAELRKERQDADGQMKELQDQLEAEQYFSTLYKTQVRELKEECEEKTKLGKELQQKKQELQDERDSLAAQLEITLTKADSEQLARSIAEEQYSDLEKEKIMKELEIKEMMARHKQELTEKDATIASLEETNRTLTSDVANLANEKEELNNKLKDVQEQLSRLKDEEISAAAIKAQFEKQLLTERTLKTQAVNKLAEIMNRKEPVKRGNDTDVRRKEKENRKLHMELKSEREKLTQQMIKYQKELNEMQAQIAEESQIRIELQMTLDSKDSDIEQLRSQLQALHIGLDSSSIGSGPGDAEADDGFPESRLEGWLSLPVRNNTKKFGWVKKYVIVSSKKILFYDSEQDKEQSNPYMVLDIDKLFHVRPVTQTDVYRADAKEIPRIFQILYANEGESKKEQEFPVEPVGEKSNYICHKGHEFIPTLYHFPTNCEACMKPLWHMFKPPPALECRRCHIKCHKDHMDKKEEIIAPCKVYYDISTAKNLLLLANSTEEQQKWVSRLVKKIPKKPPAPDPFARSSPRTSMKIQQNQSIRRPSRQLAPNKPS

ROCK1, sequence (Q13464 whole entry, species assumed): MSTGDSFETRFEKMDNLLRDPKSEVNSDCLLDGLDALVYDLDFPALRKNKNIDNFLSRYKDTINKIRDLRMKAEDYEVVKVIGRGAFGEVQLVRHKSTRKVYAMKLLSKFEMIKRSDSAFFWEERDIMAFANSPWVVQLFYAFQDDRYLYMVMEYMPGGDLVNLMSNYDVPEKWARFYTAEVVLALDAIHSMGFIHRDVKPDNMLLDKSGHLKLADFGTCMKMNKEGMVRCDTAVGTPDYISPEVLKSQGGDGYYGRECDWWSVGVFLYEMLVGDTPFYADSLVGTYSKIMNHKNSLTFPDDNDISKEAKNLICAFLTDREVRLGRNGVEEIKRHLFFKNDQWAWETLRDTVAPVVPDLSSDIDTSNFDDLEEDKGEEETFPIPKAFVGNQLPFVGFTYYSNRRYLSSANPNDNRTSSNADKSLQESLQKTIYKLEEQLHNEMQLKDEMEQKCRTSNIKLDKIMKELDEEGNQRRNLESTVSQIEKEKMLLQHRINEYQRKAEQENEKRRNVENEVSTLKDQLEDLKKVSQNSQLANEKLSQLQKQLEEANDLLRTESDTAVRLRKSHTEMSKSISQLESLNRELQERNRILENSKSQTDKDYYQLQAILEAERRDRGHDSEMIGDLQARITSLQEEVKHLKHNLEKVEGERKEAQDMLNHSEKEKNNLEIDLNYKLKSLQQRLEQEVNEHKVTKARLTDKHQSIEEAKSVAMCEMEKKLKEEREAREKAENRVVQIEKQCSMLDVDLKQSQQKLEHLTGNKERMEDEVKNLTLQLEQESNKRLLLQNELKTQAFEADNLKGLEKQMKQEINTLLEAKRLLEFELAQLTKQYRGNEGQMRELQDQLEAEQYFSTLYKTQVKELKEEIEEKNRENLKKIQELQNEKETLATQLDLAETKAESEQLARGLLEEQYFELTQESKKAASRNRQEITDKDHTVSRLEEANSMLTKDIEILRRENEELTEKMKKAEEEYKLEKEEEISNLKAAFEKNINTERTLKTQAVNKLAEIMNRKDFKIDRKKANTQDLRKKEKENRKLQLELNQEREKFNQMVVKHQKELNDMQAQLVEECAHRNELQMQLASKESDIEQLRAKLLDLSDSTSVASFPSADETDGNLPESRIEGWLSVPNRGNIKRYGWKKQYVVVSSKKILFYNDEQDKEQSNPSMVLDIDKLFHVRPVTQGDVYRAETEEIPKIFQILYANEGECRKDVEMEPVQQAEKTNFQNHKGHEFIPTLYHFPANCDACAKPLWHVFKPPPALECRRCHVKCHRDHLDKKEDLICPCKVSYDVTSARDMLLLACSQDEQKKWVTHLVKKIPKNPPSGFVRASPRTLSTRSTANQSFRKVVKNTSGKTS

SMILES | IC50 (ROCK1) [nM] | IC50 (ROCK2) [nM]
O=C(Cc1ccc(-c2n[nH]c(=O)c3ccccc23)cc1)NCC1CC1 [Example 14, N-(cyclopropylmethyl)-2-[4-(4-oxo-3,4-dihydrophthalazin-1-yl)phenyl]acetamide] | 1000 to 50000 | 1000 to 50000
Cc1nnc(NC(=O)Cc2ccc(-c3n[nH]c(=O)c4ccccc34)cc2)s1 [Example 31, N-(5-methyl-1,3,4-thiadiazol-2-yl)-2-[4-(4-oxo-3,4-dihydrophthalazin-1-yl)phenyl]acetamide] | 1000 to 50000 | 0.1 to 100
COc1ccc2c(=O)[nH]cc(-c3ccc(NC(=O)N4CCc5ccccc54)cc3)c2c1 [Example 266, N-(4-(6-Methoxy-1-oxo-1,2-dihydroisoquinolin-4-yl)phenyl)indoline-1-carboxamide] | 0.1 to 100 | 0.1 to 100
COc1ccc2c(c1)CN(C(=O)Cc1ccc(-c3n[nH]c(=O)c4ccccc34)cc1)C2 [Example 3, 4-(4-(2-(5-Methoxyisoindolin-2-yl)-2-oxoethyl)phenyl)phthalazin-1(2H)-one] | 101 to 1000 | 0.1 to 100
O=C(Nc1ccc(-c2n[nH]c(=O)c3ccccc23)cc1O)c1nn(CC2CCOC2)c2ccccc12 (centres unmarked) [Example 354, N-(2-Hydroxy-4-(4-oxo-3,4-dihydrophthalazin-1-yl)phenyl)-1-((tetrahydrofuran-3-yl)methyl)-1H-indazole-3-carboxamide] | 0.1 to 100 | 0.1 to 100
Cc1cc(NC(=O)c2nn(CC(C)(C)O)c3ccccc23)ccc1-c1n[nH]c(=O)c2ccccc12 [Example 301, 1-(2-hydroxy-2-methylpropyl)-N-[3-methyl-4-(4-oxo-3,4-dihydrophthalazin-1-yl)phenyl]-1H-indazole-3-carboxamide] | 0.1 to 100 | 0.1 to 100
CC(C)=Cn1nc(C(=O)Nc2ccc(-c3n[nH]c(=O)c4ccccc34)cc2)c2cc(F)ccc21 [Example 178, 5-fluoro-1-(2-methylprop-1-en-1-yl)-N-[4-(4-oxo-3,4-dihydrophthalazin-1-yl)phenyl]-1H-indazole-3-carboxamide] | 101 to 1000 | 0.1 to 100
O=C(Nc1ccc(-c2n[nH]c(=O)c3ccccc23)cc1)c1cnn(CCC(F)(F)F)c1 [Example 398, N-(4-(4-Oxo-3,4-dihydrophthalazin-1-yl)phenyl)-1-(3,3,3-trifluoropropyl)-1H-pyrazole-4-carboxamide] | 101 to 1000 | 0.1 to 100
O=C(Cc1ccc(-c2n[nH]c(=O)c3ccccc23)cc1)NC1CCC1 [Example 19, N-cyclobutyl-2-[4-(4-oxo-3,4-dihydrophthalazin-1-yl)phenyl]acetamide] | 1000 to 50000 | 1000 to 50000
O=C(Nc1ccc(-c2n[nH]c(=O)c3ccccc23)cc1)C1Cc2cc(O)ccc2O1 (centres unmarked) [Example 106, 5-hydroxy-N-[4-(4-oxo-3,4-dihydrophthalazin-1-yl)phenyl]-2,3-dihydro-1-benzofuran-2-carboxamide] | 1000 to 50000 | 0.1 to 100
O=C(Oc1ccc(-c2n[nH]c(=O)c3ccccc23)cc1)N1Cc2ccc(F)cc2C1 [Example 71, 4-(4-Oxo-3,4-dihydrophthalazin-1-yl)phenyl 5-fluoroisoindoline-2-carboxylate] | 1000 to 50000 | 0.1 to 100
CN1CC[C@H](Oc2ccc3c(c2)N(C(=O)Cc2ccc(-c4n[nH]c(=O)c5ccccc45)cc2)CC3)C1 [Example 281, 4-{4-[2-(6-{[(3S)-1-methylpyrrolidin-3-yl]oxy}-2,3-dihydro-1H-indol-1-yl)-2-oxoethyl]phenyl}-1,2-dihydrophthalazin-1-one] | 101 to 1000 | 0.1 to 100
O=C(Cc1ccc(-c2n[nH]c(=O)c3ccccc23)cc1)Nc1ccccc1 [Example 20, 2-[4-(4-oxo-3,4-dihydrophthalazin-1-yl)phenyl]-N-phenylacetamide] | 1000 to 50000 | 101 to 1000
Cc1cc(NC(=O)c2cnn3ccccc23)ccc1-c1n[nH]c(=O)c2ccccc12 [Example 310, N-[3-methyl-4-(4-oxo-3,4-dihydrophthalazin-1-yl)phenyl]pyrazolo [1,5-a]pyridine-3-carboxamide] | 101 to 1000 | 0.1 to 100
Cc1cc(NC(=O)c2nn(CC3CCN(CCCCO)CC3)c3ccccc23)ccc1-c1n[nH]c(=O)c2ccccc12 [Example 321, 1-((1-(4-Hydroxybutyl)piperidin-4-yl)methyl)-N-(3-methyl-4-(4-oxo-3,4-dihydrophthalazin-1-yl)phenyl)-1H-indazole-3-carboxamide] | 0.1 to 100 | 101 to 1000
CN(C)C(=O)c1ccc2c(c1)N(C(=O)Cc1ccc(-c3n[nH]c(=O)c4ccccc34)cc1)CC2 [Example 291, N,N-dimethyl-1-{2-[4-(4-oxo-3,4-dihydrophthalazin-1-yl)phenyl]acetyl}-2,3-dihydro-1H-indole-6-carboxamide] | 101 to 1000 | 0.1 to 100

Second part, the compound after the results:

IC50 (ROCK1) [nM] | IC50 (ROCK2) [nM] | SMILES
101 to 1000 | 0.1 to 100 | Cc1cc(NC(=O)c2cnn(-c3ccccc3)c2C)ccc1-c1n[nH]c(=O)c2ccccc12 [Example 394, 5-Methyl-N-(3-methyl-4-(4-oxo-3,4-dihydrophthalazin-1-yl)phenyl)-1-phenyl-1H-pyrazole-4-carboxamide]
0.1 to 100 | 0.1 to 100 | O=C(Cc1ccc(-c2n[nH]c(=O)c3ccccc23)cc1)N1CCc2ccc(O[C@@H]3CCOC3)cc21 [Example 274, 4-[4-(2-oxo-2-{6-[(3R)-oxolan-3-yloxy]-2,3-dihydro-1H-indol-1-yl}ethyl)phenyl]-1,2-dihydrophthalazin-1-one]
0.1 to 100 | 0.1 to 100 | CN(C)CCOc1ccc2c(C(=O)Nc3ccc(-c4n[nH]c(=O)c5ccccc45)cc3)cnn2c1 [Example 177, 6-[2-(dimethylamino)ethoxy]-N-[4-(4-oxo-3,4-dihydrophthalazin-1-yl)phenyl]pyrazolo[1,5-a]pyridine-3-carboxamide]
101 to 1000 | 0.1 to 100 | Cc1cn2cc(C(=O)Nc3ccc(-c4n[nH]c(=O)c5ccccc45)cc3)nc2cn1 [Example 121, 6-methyl-N-[4-(4-oxo-3,4-dihydrophthalazin-1-yl)phenyl]imidazo[1,2-a]pyrazine-2-carboxamide]
101 to 1000 | 0.1 to 100 | O=c1[nH]nc(-c2ccc(Nc3ncc4ccccc4n3)cc2)c2ccccc12 [Example 78, 4-{4-[(Quinazolin-2-yl)amino]phenyl}-1,2-dihydrophthalazin-1-one]
0.1 to 100 | 0.1 to 100 | CCn1c(C(=O)Nc2ccc(-c3n[nH]c(=O)c4ccccc34)cc2)cc2ccccc21 [Example 107, 1-ethyl-N-[4-(4-oxo-3,4-dihydrophthalazin-1-yl)phenyl]-1H-indole-2-carboxamide]
0.1 to 100 | 0.1 to 100 | Cn1nc(C(=O)Nc2ccc(-c3n[nH]c(=O)c4ccccc34)cc2)cc1-c1ccccc1 [Example 207, 1-methyl-N-[4-(4-oxo-3,4-dihydrophthalazin-1-yl)phenyl]-5-phenyl-1H-pyrazole-3-carboxamide]
0.1 to 100 | 0.1 to 100 | COc1cccc(-n2cc(C(=O)Nc3ccc(-c4n[nH]c(=O)c5ccccc45)cc3)nn2)c1 [Example 404, 1-(3-Methoxyphenyl)-N-(4-(4-oxo-3,4-dihydrophthalazin-1-yl)phenyl)-1H-1,2,3-triazole-4-carboxamide]
0.1 to 100 | 0.1 to 100 | CN(C)c1cccc(C(=O)Nc2ccc(-c3c[nH]c(=O)c4ccccc34)cc2)c1 [Example 244, 3-(Dimethylamino)-N-[4-(1-oxo-1,2-dihydroisoquinolin-4-yl)phenyl]benzamide]
